Laboratory results reported in PubChem BioAssay (NCI).
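Exposure lasted 48 hours, with cells grown in 96-well plates and compounds tested at five concentrations. TGI: total growth inhibition.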

What was measured:
Experiment in all cases: NCI tumour cell line growth inhibition, 48 h
786-0 renal = system: 786-0 renal
A498 renal = system: A498 renal
A549 NSCLC = system: A549 NSCLC
ACHN renal = system: ACHN renal
CAKI-1 renal = system: CAKI-1 renal
CCRF-CEM leukemia = system: CCRF-CEM leukemia
COLO 205 colon = system: COLO 205 colon
DLD-1 colon = system: DLD-1 colon
DMS 114 small cell lung = system: DMS 114 small cell lung
DMS 273 small cell lung = system: DMS 273 small cell lung
EKVX NSCLC = system: EKVX NSCLC
HCC-2998 colon = system: HCC-2998 colon
HCT-116 colon = system: HCT-116 colon
HCT-15 colon = system: HCT-15 colon
HL-60(TB) leukemia = system: HL-60(TB) leukemia
HOP-18 NSCLC = system: HOP-18 NSCLC
HOP-92 NSCLC = system: HOP-92 NSCLC
HT29 colon = system: HT29 colon
IGROV1 ovarian = system: IGROV1 ovarian
K-562 leukemia = system: K-562 leukemia
KM12 colon = system: KM12 colon
KM20L2 colon = system: KM20L2 colon
LOX IMVI melanoma = system: LOX IMVI melanoma
LXFL 529 NSCLC = system: LXFL 529 NSCLC
M14 melanoma = system: M14 melanoma
M19-MEL melanoma = system: M19-MEL melanoma
MALME-3M melanoma = system: MALME-3M melanoma
MOLT-4 leukemia = system: MOLT-4 leukemia
NCI-H226 lung = system: NCI-H226 lung
NCI-H23 lung = system: NCI-H23 lung
NCI-H460 lung = system: NCI-H460 lung
NCI-H522 lung = system: NCI-H522 lung
OVCAR-3 ovarian = system: OVCAR-3 ovarian
OVCAR-4 ovarian = system: OVCAR-4 ovarian
OVCAR-5 ovarian = system: OVCAR-5 ovarian
OVCAR-8 ovarian = system: OVCAR-8 ovarian
RPMI-8226 leukemia = system: RPMI-8226 leukemia
RXF 393 renal = system: RXF 393 renal
SF-268 CNS = system: SF-268 CNS
SF-295 CNS = system: SF-295 CNS
SF-539 CNS = system: SF-539 CNS
SK-MEL-2 melanoma = system: SK-MEL-2 melanoma
SK-MEL-28 melanoma = system: SK-MEL-28 melanoma
SK-MEL-5 melanoma = system: SK-MEL-5 melanoma
SK-OV-3 ovarian = system: SK-OV-3 ovarian
SN12C renal = system: SN12C renal
SNB-19 CNS = system: SNB-19 CNS
SNB-75 CNS = system: SNB-75 CNS
SNB-78 CNS = system: SNB-78 CNS
SW-620 colon = system: SW-620 colon
TK-10 renal = system: TK-10 renal
U251 CNS = system: U251 CNS
UACC-257 melanoma = system: UACC-257 melanoma
UACC-62 melanoma = system: UACC-62 melanoma
UO-31 renal = system: UO-31 renal

Measured: TGI

CCOC(=O)/C(O)=C/c1cc(OC)cc(=O)o1
> 100 µM: 786-0 renal | A498 renal | A549 NSCLC | ACHN renal | CAKI-1 renal | CCRF-CEM leukemia | COLO 205 colon | DLD-1 colon | DMS 114 small cell lung | DMS 273 small cell lung | EKVX NSCLC | HCC-2998 colon | HCT-116 colon | HCT-15 colon | HL-60(TB) leukemia | HOP-18 NSCLC | HOP-92 NSCLC | HT29 colon | IGROV1 ovarian | K-562 leukemia | KM12 colon | KM20L2 colon | LOX IMVI melanoma | LXFL 529 NSCLC | M14 melanoma | M19-MEL melanoma | MALME-3M melanoma | MOLT-4 leukemia | NCI-H226 lung | NCI-H23 lung | NCI-H460 lung | NCI-H522 lung | OVCAR-3 ovarian | OVCAR-4 ovarian | OVCAR-5 ovarian | OVCAR-8 ovarian | RPMI-8226 leukemia | RXF 393 renal | SF-268 CNS | SF-295 CNS | SF-539 CNS | SK-MEL-2 melanoma | SK-MEL-28 melanoma | SK-MEL-5 melanoma | SK-OV-3 ovarian | SN12C renal | SNB-19 CNS | SNB-75 CNS | SNB-78 CNS | SW-620 colon | TK-10 renal | U251 CNS | UACC-257 melanoma | UACC-62 melanoma | UO-31 renal
